Reference: patent US10828315B2 (Madrigal Pharmaceuticals, Inc., priority 2013, dated 2020)

Key:
[1] = system: human urinary bladder cancer cell line RT-112; assay: Cytotoxicity assay (CellTiter-Glo, 72 h), RT-112; type: cell-based; settings: RT-112, 72 hours, read-out: Cytotoxicity (IC50, nM) RT-112
Method: (§1) Cytotoxicity of SDC-TRAP molecules was determined in three cancer cell lines. […] 80 μL of CellTiter-Glo was added to each well, followed by room temperature incubation in the dark for 15 minutes. Cell was determined by luminescence. IC50 was calculated using XLfit™ software.

[2] = system: human urinary bladder cancer cell line SW780; assay: Cytotoxicity assay (CellTiter-Glo, 72 h), SW780; type: cell-based; settings: SW780, 72 hours, read-out: Cytotoxicity (IC50, nM) SW-780
Method: as §1

[3] = Physical appearance of SDC-TRAP-0063 formulations and infusion solutions with different diluents and carbonate buffers; type: physicochemical; settings: for Observations (physical appearance): 5% v/v DMSO
Method: First, a stock solution of SDC-TRAP-0063 was prepared in DMSO at 22 mg/mL, then the required amount of tween 80 was added and mixed well.
The above formulation containing SDC-TRAP-0063 was diluted using either D5W, D5W (pH 10.5, adjusted with 4.55 mM NaOH) or carbonate buffer, pH 10) (final drug concentration.: 1 mg/mL SDC-TRAP-0063, 1.8% v/v Tween 80, 5% v/v DMSO). The physical observations on these solutions were noted before and filtration through 0.22μ PES filter and were further observed for 3 hr. Refer to the table below for summary of observations. Note: Carbonate buffer, pH 10 was prepared by mixing 0.1M sodium carbonate (27.5 mL) and 0.1M sodium bicarbonate (22.5 mL) and qs 200 mL with DIW. The total Na content of carbonate buffer was 39 mM.
A stock solution of SDC-TRAP-0063 was prepared in either DMSO or PEG-300. To prepare formulations containing DMSO and tween 80, required amount of tween 80 added to the stock of DMSO (containing SDC-TRAP-0063). The formulations were then was diluted with carbonate buffer, pH 10 (composition: add and mix 0.1M sodium carbonate (27.5 mL) and 0.1M sodium bicarbonate (22.5 mL) and qs 200 mL with DIW). The samples (prepared in glass vial) were mixed well and observed for physical appearance while stirring on a magnetic stirring plate at ambient. (Note-appropriate amounts of SDC-TRAP-0063, tween 80, DMSO and PEG-300, as applicable were used to prepare the solutions at the desired concentrations and drug concentrations at 1 mg/mL through 5 mg/mL as shown).
Carbonate buffers of different pH (pH 9-10) and ionic strengths (with higher (>2) Na contents that SDC-TRAP-0063 on molar basis) were prepared and used for diluting the DMSO/tween 80 formulation loaded with SDC-TRAP-0063 (as described in earlier section 3). The final concentrations of DMSO and tween 80 in the diluted carbonate buffer were 5% v/v and 1.8% v/v respectively. The drug concentration was kept constant (5 mg/mL) for all diluted samples.

## CCc1c2c(nc3ccc(OC(=O)N4CCC(CCn5ccc6cc(-n7c(O)nnc7-c7cc(C(C)C)c(O)cc7O)ccc65)CC4)cc13)-c1cc3c(c(=O)n1C2)COC(=O)[C@]3(O)CC [SDC-TRAP-0063, 4,11-diethyl-4-hydroxy-3,14-dioxo-3,4,12,14-tetrahydro-1H-pyrano[3′,4′:6,7]indolizino[1,2-b]quinolin-9-yl 4-(2-(5-(3-(2,4-dihydroxy-5-isopropylphenyl)-5-hydroxy-4H-1,2,4-triazol-4-yl)-1H-indol-1-yl)ethyl)piperidine-1-carboxylate]
[1]
  IC50: 83 nM
[2]
  IC50: 261 nM
[3]; 22 mg/mL in DMSO, and after addition of tween 80
  physical appearance of stock solution: clear and homogenous
[3]; 5% v/v DMSO + […] v/v tween 80, 1-5 mg/mL
  physical appearance after dilution with carbonate buffer, pH 10: clear at 2 hr of stirring
[3]; […] v/v Tween 80, carbonate buffer pH 10 (39 mM Na), 1 mg/mL, 30 min
  Observations (physical appearance): Clear
[3]; […] v/v Tween 80, carbonate buffer pH 10 (39 mM Na), 1 mg/mL, 1 h
  Observations (physical appearance): Clear
[3]; […] v/v Tween 80, carbonate buffer pH 10 (39 mM Na), 1 mg/mL, 2 h
  Observations (physical appearance): Clear
[3]; […] v/v Tween 80, carbonate buffer pH 10 (39 mM Na), 1 mg/mL, Initial
  Observations (physical appearance): Clear
[3]; […] v/v Tween 80, carbonate buffer pH 10 (39 mM Na), 1 mg/mL, Overnight
  Observations (physical appearance): Clear
[3]; […] v/v Tween 80, carbonate buffer pH 10 (39 mM Na), 2 mg/mL, 30 min
  Observations (physical appearance): Clear
[3]; […] v/v Tween 80, carbonate buffer pH 10 (39 mM Na), 2 mg/mL, 1 h
  Observations (physical appearance): Clear
[3]; […] v/v Tween 80, carbonate buffer pH 10 (39 mM Na), 2 mg/mL, 2 h
  Observations (physical appearance): Clear
[3]; […] v/v Tween 80, carbonate buffer pH 10 (39 mM Na), 2 mg/mL, Initial
  Observations (physical appearance): Clear
[3]; […] v/v Tween 80, carbonate buffer pH 10 (39 mM Na), 2 mg/mL, Overnight
  Observations (physical appearance): Clear
[3]; […] v/v Tween 80, carbonate buffer pH 10 (39 mM Na), 3 mg/mL, 30 min
  Observations (physical appearance): Cloudy
[3]; […] v/v Tween 80, carbonate buffer pH 10 (39 mM Na), 3 mg/mL, 1 h
  Observations (physical appearance): Clear
[3]; […] v/v Tween 80, carbonate buffer pH 10 (39 mM Na), 3 mg/mL, 2 h
  Observations (physical appearance): Clear
[3]; […] v/v Tween 80, carbonate buffer pH 10 (39 mM Na), 3 mg/mL, Initial
  Observations (physical appearance): Cloudy
[3]; […] v/v Tween 80, carbonate buffer pH 10 (39 mM Na), 3 mg/mL, Overnight
  Observations (physical appearance): Clear
[3]; […] v/v Tween 80, carbonate buffer pH 10 (39 mM Na), 4 mg/mL, 30 min
  Observations (physical appearance): Cloudy
[3]; […] v/v Tween 80, carbonate buffer pH 10 (39 mM Na), 4 mg/mL, 1 h
  Observations (physical appearance): Cloudy
[3]; […] v/v Tween 80, carbonate buffer pH 10 (39 mM Na), 4 mg/mL, 2 h
  Observations (physical appearance): Clear
[3]; […] v/v Tween 80, carbonate buffer pH 10 (39 mM Na), 4 mg/mL, Initial
  Observations (physical appearance): Cloudy
[3]; […] v/v Tween 80, carbonate buffer pH 10 (39 mM Na), 4 mg/mL, Overnight
  Observations (physical appearance): Clear
[3]; […] v/v Tween 80, carbonate buffer pH 10 (39 mM Na), 5 mg/mL, 30 min
  Observations (physical appearance): Cloudy
[3]; […] v/v Tween 80, carbonate buffer pH 10 (39 mM Na), 5 mg/mL, 1 h
  Observations (physical appearance): Cloudy
[3]; […] v/v Tween 80, carbonate buffer pH 10 (39 mM Na), 5 mg/mL, 2 h
  Observations (physical appearance): Clear
[3]; […] v/v Tween 80, carbonate buffer pH 10 (39 mM Na), 5 mg/mL, Initial
  Observations (physical appearance): Cloudy
[3]; […] v/v Tween 80, carbonate buffer pH 10 (39 mM Na), 5 mg/mL, Overnight
  Observations (physical appearance): Clear
[3]; […] v/v Tween 80, 5 mg/mL, Carbonate buffer, pH 9.2 (25 mM Na), 1 h
  Observations (physical appearance): Cloudy
[3]; […] v/v Tween 80, 5 mg/mL, Carbonate buffer, pH 9.2 (25 mM Na), 2 h
  Observations (physical appearance): Cloudy
[3]; […] v/v Tween 80, 5 mg/mL, Carbonate buffer, pH 9.2 (25 mM Na), 3 h
  Observations (physical appearance): Cloudy
[3]; […] v/v Tween 80, 5 mg/mL, Carbonate buffer, pH 9.2 (25 mM Na), Initial
  Observations (physical appearance): Cloudy
[3]; […] v/v Tween 80, 5 mg/mL, Carbonate buffer, pH 9.2 (25 mM Na), Overnight
  Observations (physical appearance): Cloudy
[3]; […] v/v Tween 80, 5 mg/mL, Carbonate buffer, pH 9.5 (26.5 mM Na), 1 h
  Observations (physical appearance): Cloudy
[3]; […] v/v Tween 80, 5 mg/mL, Carbonate buffer, pH 9.5 (26.5 mM Na), 2 h
  Observations (physical appearance): Cloudy
[3]; […] v/v Tween 80, 5 mg/mL, Carbonate buffer, pH 9.5 (26.5 mM Na), 3 h
  Observations (physical appearance): Cloudy
[3]; […] v/v Tween 80, 5 mg/mL, Carbonate buffer, pH 9.5 (26.5 mM Na), Initial
  Observations (physical appearance): Cloudy
[3]; […] v/v Tween 80, 5 mg/mL, Carbonate buffer, pH 9.5 (26.5 mM Na), Overnight
  Observations (physical appearance): Cloudy
[3]; […] v/v Tween 80, 5 mg/mL, Carbonate buffer, pH 9.5 ([…] Na), 1 h
  Observations (physical appearance): Cloudy
[3]; […] v/v Tween 80, 5 mg/mL, Carbonate buffer, pH 9.5 ([…] Na), 2 h
  Observations (physical appearance): Cloudy
[3]; […] v/v Tween 80, 5 mg/mL, Carbonate buffer, pH 9.5 ([…] Na), 3 h
  Observations (physical appearance): Clear
[3]; […] v/v Tween 80, 5 mg/mL, Carbonate buffer, pH 9.5 ([…] Na), Initial
  Observations (physical appearance): Cloudy
[3]; […] v/v Tween 80, 5 mg/mL, Carbonate buffer, pH 9.5 ([…] Na), Overnight
  Observations (physical appearance): Clear
[3]; […] v/v Tween 80, 5 mg/mL, Carbonate buffer, pH 10 (39 mM Na), 1 h
  Observations (physical appearance): Cloudy
[3]; […] v/v Tween 80, 5 mg/mL, Carbonate buffer, pH 10 (39 mM Na), 2 h
  Observations (physical appearance): Clear yellow
[3]; […] v/v Tween 80, 5 mg/mL, Carbonate buffer, pH 10 (39 mM Na), 3 h
  Observations (physical appearance): Clear yellow
[3]; […] v/v Tween 80, 5 mg/mL, Carbonate buffer, pH 10 (39 mM Na), Initial
  Observations (physical appearance): Cloudy
[3]; […] v/v Tween 80, 5 mg/mL, Carbonate buffer, pH 10 (39 mM Na), Overnight
  Observations (physical appearance): Clear yellow
[3]; […] v/v Tween 80, 5 mg/mL, Carbonate buffer, pH 10 (155 mM Na), 1 h
  Observations (physical appearance): Clear
[3]; […] v/v Tween 80, 5 mg/mL, Carbonate buffer, pH 10 (155 mM Na), 2 h
  Observations (physical appearance): Clear yellow
[3]; […] v/v Tween 80, 5 mg/mL, Carbonate buffer, pH 10 (155 mM Na), 3 h
  Observations (physical appearance): Clear yellow
[3]; […] v/v Tween 80, 5 mg/mL, Carbonate buffer, pH 10 (155 mM Na), Initial
  Observations (physical appearance): Cloudy
[3]; […] v/v Tween 80, 5 mg/mL, Carbonate buffer, pH 10 (155 mM Na), Overnight
  Observations (physical appearance): Clear yellow
[3]; carbonate buffer pH 10 (39 mM Na), 1 mg/mL, 30 min
  Observations (physical appearance): Cloudy
[3]; carbonate buffer pH 10 (39 mM Na), 1 mg/mL, 1 h
  Observations (physical appearance): Cloudy
[3]; carbonate buffer pH 10 (39 mM Na), 1 mg/mL, 6 h
  Observations (physical appearance): Cloudy
[3]; carbonate buffer pH 10 (39 mM Na), 1 mg/mL, Initial
  Observations (physical appearance): Cloudy
